{"source": "paper PMC12106329", "about": "“Chronic alcohol intake disrupts cytochrome P450 enzyme activity in alcoholic fatty liver disease: insights into metabolic alterations and therapeutic targets” (Frontiers in Chemistry, 2025)", "key": {"[1]": {"tested_on": "CYP1A2", "details": "AM group, oral ethanol 12 weeks; compared to NC and SC groups", "method": "(§1) Sixty healthy male Sprague-Dawley rats (SD-2024-RAT-045, Beijing Vital River Laboratory Animal Technology Co., Ltd., Beijing, China) weighing 200–250 g were selected. The animals were housed under a 12-h light/dark cycle at a constant laboratory temperature of 22°C ± 2°C and relative humidity of 50% ± 10%, with access to ample food and water. Sixty rats were randomly assigned to four groups (fifteen rats per group): the normal control group (NC group), the sucrose solution group (SC group), the ethanol intake group (AM group), and the ethanol intake group with simultaneous overexpression of CYP2C11 and CYP2B6 (AM + oe-CYP2C11&CYP2B6 group). The NC group received an equal volume of normal saline daily via oral gavage. The SC group was given an 18% sucrose solution (w/v) and an equal volume of normal saline instead of ethanol. The AM group started with a 5% ethanol concentration, increasing by 5% weekly to 40% while maintaining a constant 18% sucrose concentration (v/v). The plasmid vector for gene overexpression, pCMV6-AC-GFP (LM-2069, LMAI Bio, Shanghai, China), was used to construct CYP2C11 and CYP2B6 plasmids, which were developed by Sangon Biotech (Shanghai, China). After constructing the AM rat model, overexpression plasmids were transfected into lentiviruses via tail vein injection ([Liu et al., 2020]). The lentivirus injections (5 × 10^7 IU/rat) were administered twice, with a minimum interval of 2 days between injections, starting on day 7 after the initiation of sucrose treatment ([Ma et al., 2020]).\n(§2) The daily ethanol and sucrose feeding volumes were weight-adjusted for the rats, approximately 20 mL per kilogram of body weight, and continued for 12 weeks. Weekly monitoring of rat weight, observation and recording of appetite, general health status including activity level, fur condition, and behavioral changes were documented. Daily feeding amounts were meticulously recorded to accurately adjust ethanol and sucrose solution volumes. After 12 weeks, the rats were euthanized by cervical dislocation following unconsciousness induced by carbon dioxide (CO₂) inhalation. Liver tissues were dissected and stored at −80°C for subsequent histological and molecular biology analyses. Blood samples were collected, and serum was separated by centrifugation (3,000 rpm, 4°C, 15 min) and stored at −80°C for future use.\n(§3) Rat liver microsomes were isolated using differential centrifugation. Each sample was mixed with 50 mM Tris-HCl buffer, homogenized, and then centrifuged at 10,000 × g for 30 min. The supernatant was centrifuged at 100,000 × g for 1 h using a high-speed centrifuge (Himac CP100WX, Hitachi, Japan).\n(§4) The activities of CYP1A2, CYP2B6, CYP2C19, CYP2C11, CYP2E1, CYP2D6, and CYP3A1 were quantitatively determined using specific labeled substrates and an NADPH generation system containing 100 mM potassium phosphate buffer, 1 mM NADP (N1630, Sigma, United States), 10 mmol/L G-6-P (G7877, Sigma, United States), 0.1 U/mL G-6-PDH (G8529, Sigma, United States), and 5 mM MgCl2. The NADPH generation system was added to microsomes (total protein concentration of 1 mg/mL) with a total volume of 190 μL. Each reaction system was supplemented with 10 μL of substrate."}, "[2]": {"tested_on": "CYP2D6", "details": "AM group, oral ethanol 12 weeks; compared to NC and SC groups", "method": "as §1, §2, §3, §4"}, "[3]": {"tested_on": "CYP2E1", "details": "AM group, oral ethanol 12 weeks; compared to NC and SC groups", "method": "as §1, §2, §3, §4"}, "[4]": {"tested_on": "CYP2C11", "details": "AM group, oral ethanol 12 weeks", "method": "as §1, §2, §3, §4"}, "[5]": {"tested_on": "CYP2B6", "details": "AM group, oral ethanol 12 weeks", "method": "as §1, §2, §3, §4"}, "[6]": {"tested_on": "CYP3A1", "details": "AM group, oral ethanol 12 weeks; compared to NC and SC groups", "method": "as §1, §2, §3, §4"}, "[7]": {"tested_on": "rat liver", "details": "AM group: oral ethanol 5% rising 5% weekly to 40% in 18% sucrose, about 20 mL/kg daily, 12 weeks; vs NC and SC groups", "method": "as §1, with “The plasmid vector for gene overexpression, pCMV6-AC-GFP (LM-2069, LMAI Bio, Shanghai, China), was used to construct CYP2C11 and CYP2B6 plasmids, which were developed by Sangon Biotech (Shanghai, China). After constructing the AM rat model, overexpression plasmids were transfected into lentiviruses via tail vein injection ([Liu et al., 2020]). The lentivirus injections (5 × 10^7 IU/rat) were administered twice, with a minimum interval of 2 days between injections, starting on day 7 after the initiation of sucrose treatment ([Ma et al., 2020]).” left out\nThe daily ethanol and sucrose feeding volumes were weight-adjusted for the rats, approximately 20 mL per kilogram of body weight, and continued for 12 weeks. […] Daily feeding amounts were meticulously recorded to accurately adjust ethanol and sucrose solution volumes. […]"}, "[8]": {"tested_on": "CYP2C11 mRNA", "details": "AM group, oral ethanol 12 weeks; compared to NC and SC groups", "method": "as §1, §2\n(§5) Total RNA was extracted from rat liver tissue using TRIzol reagent (15596026, Invitrogen, United States). cDNA was synthesized using the cDNA synthesis kit (RR036A, Takara, Japan). Specific gene expression was detected by combining the PCR master mix (206143, Qiagen, United States) with the Pikoreal 96 real-time PCR system (QPCR-96X, Thermo Scientific, United States). Quantitative PCR analysis was performed for CYP450 enzyme-related genes with the endogenous gene β-actin as a reference, and the relative mRNA expression levels were quantified by calculating the 2^−ΔΔCt values. All experiments were repeated three times."}, "[9]": {"tested_on": "CYP3A1 mRNA", "details": "AM group, oral ethanol 12 weeks; compared to NC and SC groups", "method": "as §1, §2, §5"}, "[10]": {"tested_on": "CYP2B6 mRNA", "details": "AM group, oral ethanol 12 weeks; compared to NC and SC groups", "method": "as §1, §2, §5"}, "[11]": {"tested_on": "CYP2E1 mRNA", "details": "AM group, oral ethanol 12 weeks; compared to NC and SC groups", "method": "as §1, §2, §5"}, "[12]": {"tested_on": "CYP1A2 mRNA", "details": "AM group, oral ethanol 12 weeks; compared to NC and SC groups", "method": "as §1, §2, §5"}, "[13]": {"tested_on": "CYP2D6 mRNA", "details": "AM group, oral ethanol 12 weeks; compared to NC and SC groups", "method": "as §1, §2, §5"}, "[14]": {"tested_on": "ROS", "details": "AM group, oral ethanol 12 weeks; vs NC and SC groups", "procedure": "Reactive oxygen species (ROS) levels were detected using the fluorescent dye 2′,7′-dichlorodihydrofluorescein diacetate (DCF) (HY-D0940, Abcam, United Kingdom). […] Endothelial cells (2 × 10^4 cells) were seeded on coverslips in six-well plates and cultured overnight. The cells were treated with H2O2 (200 μM) the next day for 24 h. After treatment, the coverslips were washed with ice-cold Hank’s Balanced Salt Solution (HBSS) (H8264, Sigma Aldrich, Shanghai, China) and incubated with 100 μM DCFDA at 37°C for 30 min. After washing, the coverslips were mounted onto slides and imaged using a multiphoton confocal microscope (A1R, Nikon, United States) with a ×100 objective. Images were analyzed using Nikon Imaging Software NIS-Element."}, "[15]": {"tested_on": "CYP2C19", "details": "AM group, oral ethanol 12 weeks", "method": "as §1, §2\n(§6) Liver samples were lysed using RIPA lysis buffer (P0013B, Beyotime, China). The total protein concentration was evaluated using the BCA protein assay kit (AR0146, Doctor’s Scientific Inc., China). SDS-PAGE was employed to separate total proteins, followed by protein transfer onto pre-wetted PVDF membranes with methanol (IPVH00010, Millipore Corp, United States). Non-specific protein blocking was carried out at room temperature for 3 h using TBST solution (BL315B, Boist, China) containing 5% milk. The target proteins were probed with primary antibodies overnight on […], followed by three washes with TBST/Tween 20 (0.075%) for 15 min each and subsequent incubation with labeled secondary antibodies for 1 h before washing. Protein visualization was performed using the Millipore Immobilon Western Chemiluminescent HRP substrate. The primary antibodies used in the experiments were polyclonal rabbit anti-human CYP450CYP1A2, 2B6, 2C11, 2C19, 2E1, 2D6, 3A1 (bs-20720R, Bioss, China) at a 1:300 dilution. The secondary antibodies, goat anti-mouse or anti-rabbit horseradish peroxidase conjugates, were diluted at 1:10,000 in TBST containing 5% milk. β-actin served as the loading control. The experiments were repeated three times."}, "[16]": {"tested_on": "CYP1A2", "details": "AM group, oral ethanol 12 weeks", "method": "as §1, §2, §6"}, "[17]": {"tested_on": "CYP2D6", "details": "AM group, oral ethanol 12 weeks", "method": "as §1, §2, §6"}, "[18]": {"tested_on": "CYP2E1", "details": "AM group, oral ethanol 12 weeks", "method": "as §1, §2, §6"}, "[19]": {"tested_on": "P-gp", "details": "AM group, oral ethanol 12 weeks", "method": "as §1, §2, §6"}, "[20]": {"tested_on": "ALDH2", "details": "AM group, oral ethanol 12 weeks", "method": "as §1, §2, §6"}, "[21]": {"tested_on": "CYP2C11", "details": "AM group, oral ethanol 12 weeks", "method": "as §1, §2, §6", "remark": "listed apart in the source"}, "[22]": {"tested_on": "CYP2B6", "details": "AM group, oral ethanol 12 weeks", "method": "as §1, §2, §6", "remark": "listed apart in the source"}, "[23]": {"details": "liver, β-actin loading control, single replicates"}}, "note": "Values joined by “and” are separate entries in the source; they are usually repeats but may differ in a detail not shown here. Equal values may be shown once.", "data": [{"compound": "CCO", "note": "[ethanol]", "values": [{"measurement": "CYP1A2 enzyme activity in liver microsomes", "setting": "[1]", "result": "significantly increased"}, {"measurement": "CYP2D6 enzyme activity in liver microsomes", "setting": "[2]", "result": "significantly increased"}, {"measurement": "CYP2E1 enzyme activity in liver microsomes", "setting": "[3]", "result": "significantly increased"}, {"measurement": "CYP2C11 enzyme activity in liver microsomes", "setting": "[4]", "result": "notable decreases"}, {"measurement": "CYP2B6 enzyme activity in liver microsomes", "setting": "[5]", "result": "notable decreases"}, {"measurement": "CYP3A1 enzyme activity in liver microsomes", "setting": "[6]", "result": "significantly increased"}, {"measurement": "liver histology (H&E)", "setting": "[7]", "result": "macrovesicular steatosis"}, {"measurement": "CYP2C11 mRNA level in liver", "setting": "[8]", "result": "significantly lower"}, {"measurement": "CYP3A1 mRNA level in liver", "setting": "[9]", "result": "significantly higher"}, {"measurement": "CYP2B6 mRNA level in liver", "setting": "[10]", "result": "significantly lower"}, {"measurement": "CYP2E1 mRNA level in liver", "setting": "[11]", "result": "significantly higher"}, {"measurement": "CYP1A2 mRNA level in liver", "setting": "[12]", "result": "significantly higher"}, {"measurement": "CYP2D6 mRNA level in liver", "setting": "[13]", "result": "significantly higher"}, {"measurement": "intracellular ROS level", "setting": "[14]", "result": "significant increase"}, {"measurement": "CYP2C19 protein expression, change", "setting": "[15]; across all groups", "result": "no significant difference"}, {"measurement": "CYP2C19 Relative protein expression", "setting": "[15]; [23]", "result": "1.22 and 1.39 and 1.27"}, {"measurement": "CYP1A2 protein expression, change", "setting": "[16]; compared to NC and SC groups", "result": "higher"}, {"measurement": "CYPIA2 Relative protein expression", "setting": "[16]; [23]", "result": "1.50 and 1.52 and 1.65"}, {"measurement": "CYP2D6 protein expression, change", "setting": "[17]; compared to NC and SC groups", "result": "higher"}, {"measurement": "CYP2D6 Relative protein expression", "setting": "[17]; [23]", "result": "3.37 and 3.45 and 2.83"}, {"measurement": "CYP2E1 protein expression, change", "setting": "[18]; compared to NC and SC groups", "result": "higher"}, {"measurement": "CYP2E1 Relative protein expression", "setting": "[18]; [23]", "result": "1.88 and 2.01 and 1.78"}, {"measurement": "P-gp protein expression, change", "setting": "[19]", "result": "significant increase"}, {"measurement": "P-gp Relative protein expression", "setting": "[19]; [23]", "result": "1.61 and 1.33 and 1.52"}, {"measurement": "ALDH2 protein level, change", "setting": "[20]; compared with NC and SC groups", "result": "increased"}, {"measurement": "ALDH2 Relative protein expression", "setting": "[20]; [23]", "result": "1.34 and 1.48 and 1.49"}, {"measurement": "CYP2C11 protein level, change", "setting": "[21]; compared to NC and SC groups", "result": "significantly lower"}, {"measurement": "CYP2C11 Relative protein expression", "setting": "[21]; [23]", "result": "0.76 and 0.74 and 0.78"}, {"measurement": "CYP2B6 protein level, change", "setting": "[22]; compared to NC and SC groups", "result": "significantly lower"}, {"measurement": "CYP2B6 Relative protein expression", "setting": "[22]; [23]", "result": "0.28 and 0.3 and 0.29"}]}]}
